In US7015309B1 (The Wistar Institute of Anatomy and Biology, priority 1999, dated 2006):
Where two headings read alike, the source gives them in different places. Non-standard residues stand in square brackets, D forms with d. Residues, ends and D or L forms follow the SMILES beside them. *: point of attachment. 5FAM = O=C1OC2(c3ccc(O)cc3Oc3cc(O)ccc32)c2ccc(C(=O)*)cc21; Biotin = O=C1N[C@H]2[C@H](CS[C@H]2CCCCC(=O)*)N1; Ac6c = NC1(C(=O)O)CCCCC1; X2 = O=C1CCCC1N*

Key:
sheep erythrocytes = test: Hemolytic activity, release of hemoglobin; settings: for Absorbence at 405 nm: 40 μM peptide, one hour, 39° C.
Method: To determine whether native and modified pyrrhocoricin peptides were toxic to mammalian cells, several peptides from Example 1 above, a positive control, and a negative control were examined for hemolytic activity. Hemolytic activity was assayed with sheep erythrocytes suspended in Alsever's solution (BioWhittaker, Walkersville, Md.), and diluted with Dulbecco's phosphate-buffered saline, pH 7.2. Thirty μL of a 1% suspension of the red blood cells was incubated with agitation at 39° C. with 30 μL of 40 to 256 μM of each of the following peptides dissolved in phosphate buffered saline for one hour and centrifuged at 1000 g for five minutes. Fifty μL of the supernatant was collected and the release of hemoglobin was detected by measuring the ultraviolet absorbences of triplicate samples of the 40 μM or 256 μM test peptides and the control peptides at 405 nm.

[1] = tested on: Agrobacterium tumefaciens; settings: 24 h
Method: (§1) Growth inhibition assays were performed using the peptides of Example 1 and the Gram positive microorganisms Micrococcus luteus and Bacillus megaterium, and the Gram negative microorganisms, Escherichia coli D22, Agrobacterium tumefaciens, and Salmonella typhimurium. Anti-bacterial assays were performed in sterilized 96-well plates (Nunc F96 microtiter plates) with a final volume of 100 μl as described in Bulet (1996), cited above. Briefly, 90 μl of a suspension of a midlogarithmic phase bacterial culture at an initial 600 nm UV absorbence of 0.001 in Luria-Bertani rich nutrient medium was added to 10 μl of serially diluted peptides in sterilized water. The final peptide concentrations ranged between 0.15 and 80 μM. The plates were incubated at 30° C. for 24 hours with gentle shaking, and the growth inhibition was measured by recording the increase of the UV absorbence at 600 nm on an SLT Labinstruments 400 ATC microplate reader. The experiments were conducted over a 7-month period.

Micrococcus luteus = tested on: Micrococcus luteus
Method: as §1

Bacillus megaterium = tested on: Bacillus megaterium
Method: as §1

Salmonella typhimurium = tested on: Salmonella typhimurium
Method: as §1

[2] = human sera, preliminary metabolism studies
Method: Owing to the fact that the use of diluted serum increases peptide recovery as well as retards the reaction kinetics to a manageable rate, the experiments were conducted using 25% aqueous sera.
For serum stability studies, 10 μl of an aqueous peptide stock solution containing about 0.8 mg/ml peptide was added to 200 μl 25% aqueous pooled mouse or human serum (Sigma, St. Louis, Mo.), according to the process described in M. F. Powell et al, Pharmacol Res, 10: 1268–1273 (1993). The peptide-serum mixture was thermostated at 37° C. After 0 minutes, 45 minutes, 2 hours and 4 hours, three samples of each peptide were taken and precipitated by the addition of 40 μl 15% aqueous trichloroacetic acid. The samples were stored at 4° C. for 20 minutes and centrifuged. The peptides and some remaining serum proteins were recovered in the supernatant after the trichloroacetic acid precipitation. The supernatants were immediately frozen on dry-ice and 220 μl of each were analyzed on RP-HPLC. A mouse serum and two different batches of the same SIGMA catalog number of human sera (human 1, approximately 1 year old, and human 2, approximately 1 month old) were also used.
The lyophilized samples were redissolved in 0.1 aqueous TFA and submitted for matrix assisted laser desorption/ionization (MALDI-MS).
The missing residues are indicated (e.g—C2 means that the C-terminal two residues are cleaved off). […] In Table 4, the relative amounts of the degradation products are estimated based on the MALDI-MS peak heights. 0=not detected; 1=very weak (below 5000), 2=weak (5–10000), 3=medium (10–15000), 4=strong (15000-uncleaved molecular ion at 25–30000), 5=very strong (above uncleaved molecular ion).

[3] = read-out: IC50 in μM against Bacillus megaterium, 30° C., 24 hours, for Peptide 22 original assay (a)

Row | Compound | IC50 [1] [µM] | IC50 (Micrococcus luteus; 24 h) [µM] | IC50 (Bacillus megaterium; [3]) [µM] | IC50 (Salmonella typhimurium; murium, 24 h) [µM] | further results
1 | CC[C@H](C)[C@H](NC(=O)CN)C(=O)NCC(=O)N[C@@H](C)C(=O)N[C@H](C(=O)N[C@@H](CC(C)C)C(=O)N[C@@H](CCCCN)C(=O)N[C@H](C(=O)N[C@@H](CC(C)C)C(=O)N[C@H](C(=O)N[C@H](C(=O)NCC(=O)N[C@@H](CC(C)C)C(=O)N1CCC[C@H]1C(=O)N[C@@H](C)C(=O)N[C@@H](CC(C)C)C(=O)N[C@H](C(=O)N[C@@H](CO)C(=O)N[C@@H](Cc1c[nH]c2ccccc12)C(=O)N[C@H](C(=O)N[C@@H](CCCCN)C(=O)N[C@@H](CCCNC(=N)N)C(=O)N[C@@H](CCCCN)C(=O)N[C@@H](CCCNC(=N)N)C(=O)N[C@@H](CCC(N)=O)C(=O)N[C@@H](CCC(N)=O)C(N)=O)[C@@H](C)CC)[C@@H](C)CC)[C@@H](C)O)[C@@H](C)O)C(C)C)C(C)C [Melittin, reference compound] |  |  |  |  | lowest concentration that lysed sheep erythrocytes (sheep erythrocytes): 5 µM; Absorbence at 405 nm (sheep erythrocytes): 2.99 ± 0.06; lysis of erythrocytes (in words) (sheep erythrocytes; final concentration of 40 μM): lysed the erythrocytes
2 | CC[C@H](C)[C@H](NC(=O)[C@H](CCCNC(=N)N)NC(=O)[C@@H](NC(=O)[C@H](Cc1ccc(O)cc1)NC(=O)[C@@H](NC(=O)[C@H](C)N)C(C)C)[C@@H](C)O)C(=O)N[C@@H](CCSC)C(=O)N[C@@H](CCSC)C(=O)N[C@@H](CC(N)=O)C(=O)NCC(=O)NCC(=O)N[C@@H](CCCNC(=N)N)C(=O)N[C@@H](CC(C)C)C(=O)N[C@@H](CCCCN)C(=O)N[C@@H](CCCNC(=N)N)C(N)=O [Peptide 31D, reference compound] |  |  |  |  | Absorbence at 405 nm (sheep erythrocytes): 0.160 ± 0.021
3 | Ac-RVDKGSYLPRPTPPRPIYNRN-NH2 (C-terminus assumed) [Peptide 4] | 2.5 | 5 | > 80 | 2.5 | 
4 | CC[C@H](C)[C@H](NC(=O)[C@@H]1CCCN1C(=O)[C@H](CCCNC(=N)N)NC(=O)[C@@H]1CCCN1C(=O)[C@@H]1CCCN1C(=O)[C@@H](NC(=O)[C@@H]1CCCN1C(=O)[C@H](CCCNC(=N)N)NC(=O)[C@@H]1CCCN1C(=O)[C@H](CC(C)C)NC(=O)[C@H](Cc1ccc(O)cc1)NC(=O)[C@H](CO)NC(=O)CNC(=O)[C@H](CCCCN)NC(=O)[C@H](CC(=O)O)NC(=O)[C@@H](NC(=O)[C@H](CCCCN)NC(=O)c1ccc2c(c1)C(=O)OC21c2ccc(O)cc2Oc2cc(O)ccc21)C(C)C)[C@@H](C)O)C(=O)N[C@@H](Cc1ccc(O)cc1)C(=O)N[C@@H](CC(N)=O)C(=O)N[C@@H](CCCNC(=N)N)C(=O)N[C@@H](CC(N)=O)C(N)=O [Peptide 19] (5FAM-KVDKGSYLPRPTPPRPIYNRN-NH2) |  |  | > 80 |  | 
5 | Ac-KVDKGSYLPRPTPPRPIYNRD-NH2 (C-terminus assumed) [Peptide 20] | 40 |  | > 80 |  | IC50 (Micrococcus luteus; read-out: IC50 in μM against Micrococcus luteus, 30° C., 24 hours, for Peptide 22 original assay (a)): > 80 µM; IC50 (Salmonella typhimurium; read-out: IC50 in μM against Salmonella typhimurium, 30° C., 24 hours, for Peptide 22 original assay (a)): > 80 µM
6 | CC[C@H](C)[C@H](NC(=O)[C@@H]1CCCN1C(=O)[C@H](CCCNC(=N)N)NC(=O)[C@@H]1CCCN1C(=O)[C@@H]1CCCN1C(=O)[C@@H](NC(=O)[C@@H]1CCCN1C(=O)[C@H](CCCNC(=N)N)NC(=O)[C@@H]1CCCN1C(=O)[C@H](CC(C)C)NC(=O)[C@H](Cc1ccc(O)cc1)NC(=O)[C@H](CO)NC(=O)CNC(=O)[C@H](CCCCN)NC(=O)[C@H](CC(=O)O)NC(=O)[C@@H](NC(=O)[C@H](CCCCN)NC(C)=O)C(C)C)[C@@H](C)O)C(=O)N[C@@H](Cc1ccc(O)cc1)C(=O)N[C@@H](CC(N)=O)C(=O)N[C@@H](CCCNC(=N)N)C(=O)NC1CCCC1=O (stereo partly drawn) [Peptide 8] (Ac-KVDKGSYLPRPTPPRPIYNR-X2; N-terminus and C-terminus assumed) | 1.25 | 5 |  | 2.5 | IC50 (Bacillus megaterium; Bacillus, 24 h): 20 µM
7 | Ac-KVDKGSYLPRPTPPRPIYNRN-NH2 (C-terminus assumed) [Peptide 5] | 5 | 40 | > 80 | 40 | 
8 | CC[C@H](C)[C@H](NC(=O)[C@@H]1CCCN1C(=O)[C@H](CCCNC(=N)N)NC(=O)[C@@H]1CCCN1C(=O)[C@@H]1CCCN1C(=O)[C@@H](NC(=O)[C@@H]1CCCN1C(=O)[C@H](CCCNC(=N)N)NC(=O)[C@@H]1CCCN1C(=O)[C@H](CC(C)C)NC(=O)[C@H](Cc1ccc(O)cc1)NC(=O)[C@H](CO)NC(=O)CNC(=O)[C@H](CCCCN)NC(=O)[C@H](CC(=O)O)NC(=O)C1(N)CCCCC1)[C@@H](C)O)C(=O)N[C@@H](Cc1ccc(O)cc1)C(=O)N[C@@H](CC(N)=O)C(=O)N[C@@H](CCCNC(=N)N)C(=O)N[C@@H](CC(N)=O)C(N)=O [Peptide 6] (H-[Ac6c]DKGSYLPRPTPPRPIYNRN-NH2; N-terminus and C-terminus assumed) | 1.25 | 5 |  | 2.5 | IC50 (Bacillus megaterium; Bacillus, 24 h): 10 µM
9 | CC[C@H](C)[C@H](NC(=O)[C@@H]1CCCN1C(=O)[C@H](CCCNC(=N)N)NC(=O)[C@@H]1CCCN1C(=O)[C@@H]1CCCN1C(=O)[C@@H](NC(=O)[C@@H]1CCCN1C(=O)[C@H](CCCNC(=N)N)NC(=O)[C@@H]1CCCN1C(=O)[C@H](CC(C)C)NC(=O)[C@H](Cc1ccc(O)cc1)NC(=O)[C@H](CO)NC(=O)CNC(=O)[C@H](CCCCN)NC(=O)[C@H](CC(=O)O)NC(=O)[C@H](N)C(C)C)[C@@H](C)O)C(=O)N[C@@H](Cc1ccc(O)cc1)C(=O)N[C@@H](CC(N)=O)C(=O)N[C@@H](CCCNC(=N)N)C(=O)N[C@H](CC(N)=O)C(N)=O [Peptide 12] (H-[dV]DKGSYLPRPTPPRPIYNR[dN]-NH2; N-terminus and C-terminus assumed) | 2.5 | 10 | > 80 | 5 | 
10 | CC[C@H](C)[C@H](NC(=O)[C@@H]1CCCN1C(=O)[C@H](CCCNC(=N)N)NC(=O)[C@@H]1CCCN1C(=O)[C@@H]1CCCN1C(=O)[C@@H](NC(=O)[C@@H]1CCCN1C(=O)[C@H](CCCNC(=N)N)NC(=O)[C@@H]1CCCN1C(=O)[C@H](CC(C)C)NC(=O)[C@H](Cc1ccc(O)cc1)NC(=O)[C@H](CO)NC(=O)CNC(=O)[C@H](CCCCN)NC(=O)[C@H](CC(=O)O)NC(=O)[C@@H](NC(=O)[C@H](CCCCN)NC(=O)CCCC[C@@H]1SC[C@@H]2NC(=O)N[C@@H]21)C(C)C)[C@@H](C)O)C(=O)N[C@@H](Cc1ccc(O)cc1)C(=O)N[C@@H](CC(N)=O)C(=O)N[C@@H](CCCNC(=N)N)C(=O)N[C@@H](CC(N)=O)C(N)=O [Peptide 18] (Biotin-KVDKGSYLPRPTPPRPIYNRN-NH2) |  |  | > 80 |  | 
11 | Ac-KVDKVDKGSYLPRPTPPRPIYNRN-NH2 (C-terminus assumed) [Peptide 3] | 10 | 80 | > 80 | 5 | 
12 | CC[C@H](C)[C@@H]1NC(=O)[C@@H]2CCCN2C(=O)[C@H](CCCNC(=N)N)NC(=O)[C@@H]2CCCN2C(=O)[C@@H]2CCCN2C(=O)[C@H]([C@@H](C)O)NC(=O)[C@@H]2CCCN2C(=O)[C@H](CCCNC(=N)N)NC(=O)[C@@H]2CCCN2C(=O)[C@H](CC(C)C)NC(=O)[C@H](Cc2ccc(O)cc2)NC(=O)[C@H](CO)NC(=O)CNC(=O)[C@H](CCCCN)NC(=O)[C@H](CC(=O)O)NC(=O)[C@H](C(C)C)NC(=O)[C@H](CCCCN)NC(=O)[C@H](CC(C)C)NC(=O)[C@@H]2CCCN2C(=O)[C@H](CCCNC(=N)N)NC(=O)[C@@H]2CCCN2C(=O)[C@H]([C@@H](C)O)NC(=O)[C@@H]2CCCN2C(=O)[C@@H]2CCCN2C(=O)[C@H](CCCNC(=N)N)NC(=O)[C@H](CC(N)=O)NC(=O)[C@H](CCCNC(=N)N)NC(=O)[C@H](CC(N)=O)NC(=O)[C@H](Cc2ccc(O)cc2)NC1=O [Peptide 17] (cyclo(KVDKGSYLPRPTPPRPIYNRNRPPTPRPL)) | 2.5 | 0.6 |  | 5 | endopeptidase cleavage site [2]: between Asn 18 and Arg19; IC50 (Bacillus megaterium; Bacillus, 24 h): 2.5 µM
